Here are results for 7 compounds from the supplement of paper PMC11061612.

Holding throughout (assay): Bliss excess, mean over the matrix (fraction); higher = more synergy
The test system of test [1] is SW13 (Other Solid Carcinomas). In a few lines:
(§1)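 Bliss excess equals the observed combination effect minus the expected value EA + EB − EA·EB, where EA and EB are the effects of each agent alone. Combination Emax is the second-highest inhibition within the matrix. Inhibition was scaled from CellTiter-Glo 2.0 luminescence, with 0 set by vehicle wells and 1 by blank wells, after 72 hours of two-drug dosing of cells plated in 1536-well plates.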

Test [2] deals with SU8686 (Pancreatic Carcinoma). Summed up:
as §1

For test [3], the system named is PANC-04-03 (Pancreatic Carcinoma). Summed up:
as §1

Test [4] has as its system MLMA (Other Blood Carcinomas). Summed up:
as §1

The subject of test [5] is KYSE-450 (Esophageal Squamous Cell Carcinoma). Summed up:
as §1

In test [6] the test system is UACC-62 (Melanoma). Summed up:
as §1

Test [7] deals with HOP-62 (Lung Adenocarcinoma). In a few lines: as §1
The subject of test [8] is RF-48 (B-Cell Non-Hodgkin's Lymphoma). Summed up:
as §1

The test system of test [9] is HGC-27 (Gastric Carcinoma). Summed up: as §1
In test [10] the test system is ACHN (Kidney Carcinoma). In a few lines:
as §1

For test [11], the system named is VA-ES-BJ (Other Solid Carcinomas). In a few lines: as §1
For test [12], the system named is YH-13 (Glioblastoma). Summed up:
as §1

The subject of test [13] is KARPAS-299 (T-Cell Non-Hodgkin's Lymphoma). In a few lines:
as §1

Test [14] concerns Ca9-22 (Head and Neck Carcinoma). Summed up: as §1
Test [15] has as its system BT-549 (Breast Carcinoma). In a few lines:
as §1

The test system of test [16] is NCI-H727 (Other Solid Carcinomas). In a few lines:
as §1

Test [17] concerns AMO-1 (Plasma Cell Myeloma). Summed up:
as §1

Test [18] concerns MIA-PaCa-2 (Pancreatic Carcinoma). In a few lines:
as §1

Test [19] concerns TGW (Neuroblastoma). Summed up:
as §1

Test [20] concerns C-4-I (Cervical Carcinoma). Summed up:
as §1

As for `CCN(CCO)CCCOc1ccc2c(Nc3cc(CC(=O)Nc4cccc(F)c4)[nH]n3)ncnc2c1` [AZD2811] + C=CCn1c(=O)c2cnc(Nc3ccc(N4CCN(C)CC4)cc3)nc2n1-c1cccc(C(C)(C)O)n1 [AZD1775] (first compound max 1 µM, partner max 1 µM), the Bliss excess in test [1] was 0.0821; in test [2], -0.0166; in [3] it was -0.0441; in test [4], 0.0432; in test [5], -0.0206; in test [6] it was -0.029. The Bliss excess in test [7] is -0.0287; in [8] it was 0.0041; in [9], -0.0176; in [10] it was 0.0555; in test [11], 0.0263; in test [12] it was -0.003. Further, the Bliss excess in test [13] was 0.0057; in test [14], 0.027; in test [15], 0.017; in test [16], -0.0909; in test [17] it was -0.0276; in test [18], 0.0756. Further, the Bliss excess is -0.0083 in test [19] and 0.0264 in test [20].

For the compound `CCN(CCO)CCCOc1ccc2c(Nc3cc(CC(=O)Nc4cccc(F)c4)[nH]n3)ncnc2c1` [AZD2811] + C[C@@H]1COCCN1C2=NC(=NC(=C2)C3(CC3)[S@](=N)(=O)C)C4=C5C=CNC5=NC=C4 [AZD6738] (first compound max 1 µM, 7x7, partner max 10 µM), the Bliss excess in test [1] is 0.0474; in test [2], -0.034; in [3], -0.0563; in test [4] it was -0.0692; in test [5] it was -0.0621; in test [6] it was -0.0338. The Bliss excess in test [7] is -0.0313; in [8] it was -0.0434; in test [9] it was -0.0885; in test [10] it was -0.0369; in test [11], -0.0217; in test [12], -0.0931. Also, the Bliss excess is -0.0024 in [13]; 0.0323 in [14]; 0.0066 in test [15]; -0.0849 in test [16]; -0.0135 in test [17]; -0.0797 in test [18]. The Bliss excess in test [19] is -0.0211; in test [20], -0.0263.

Take `CCN(CCO)CCCOc1ccc2c(Nc3cc(CC(=O)Nc4cccc(F)c4)[nH]n3)ncnc2c1` [AZD2811] + O=C(c1cc(Cc2n[nH]c(=O)c3ccccc23)ccc1F)N1CCN(C(=O)C2CC2)CC1 [Olaparib] (first compound max 1 µM, 7x7, partner max 10 µM): the Bliss excess in test [1] is 0.0345; in [2], -0.0075; in test [3], -0.0177; in [4] it was -0.0191; in test [5], -0.0135; in test [6], -0.004. In addition, the Bliss excess in [7] was -0.0376; in test [8], 0.0181; in test [9], -0.0122; in test [10] it was 0.0023; in test [11] it was 0.0206; in test [12], 0.0304. The Bliss excess in test [13] was 0.0298; in test [14], 0.0109; in test [15] it was -0.0015; in test [16], -0.0184; in test [17], 0.0193; in [18], 0.0461. Also, the Bliss excess in [19] was -0.0236; in [20] it was 0.0328.

As to `CN(CCO)CC[C@H](CSc1ccccc1)Nc1ccc(S(=O)(=O)NC(=O)c2ccc(N3CCC([C@@H](O)c4ccccc4-c4ccc(Cl)cc4)CC3)cc2)cc1S(=O)(=O)C(F)(F)F` [AZD4320] + CN(C)CCCOc1ccc(-c2ccc3ncc4c(c3c2)n(C2CCOCC2)c(=O)n4C)cn1 [AZD0156] (first compound max 1 µM, 7x7, partner max 1 µM), the Bliss excess in test [1] is -0.019; in test [2], -0.0404; in test [3], -0.0652; in test [4], 0.0214; in test [5] it was -0.0485; in test [6], -0.0368. Moreover, the Bliss excess in test [7] was -0.0619; in test [8], -0.0469; in test [9], -0.064; in [10], -0.0045; in test [11], -0.0379; in [12] it was -0.0489. Moreover, the Bliss excess in test [13] was 0.0129; in test [14], -0.0338; in [15] it was -0.0354; in [16] it was -0.0606; in test [17], -0.0217; in test [18], -0.0626. Moreover, the Bliss excess in [19] was -0.0068; in [20], -0.0024.

In the case of `COc1nnc2ccc(N3CCC(c4ccc(OCCN5CCN(C)C(=O)[C@H]5C)cc4)CC3)nn12` [AZD5153] + C=CCn1c(=O)c2cnc(Nc3ccc(N4CCN(C)CC4)cc3)nc2n1-c1cccc(C(C)(C)O)n1 [AZD1775] (first compound max 1 µM, partner max 1 µM), the Bliss excess in test [1] is -0.0336; in [2], -0.0147; in test [3], -0.106; in test [4] it was -0.107; in [5], -0.0699; in test [6], -0.0529. Also, the Bliss excess in test [7] was -0.0674; in [8], -0.012; in test [9] it was -0.0229; in test [10] it was -0.0396; in [11], 0.0076; in test [12], -0.0451. The Bliss excess in test [13] is -0.0336; in [14] it was -0.0453; in [15], -0.0585; in [16], -0.0299; in [17] it was -0.0881; in [18], -0.0019. For the same compound, the Bliss excess was -0.0689 in test [19] and -0.109 in test [20].

For `COc1nnc2ccc(N3CCC(c4ccc(OCCN5CCN(C)C(=O)[C@H]5C)cc4)CC3)nn12` [AZD5153] + CC1(C)CCC(CN2CCN(c3ccc(C(=O)NS(=O)(=O)c4ccc(NCC5CCOCC5)c([N+](=O)[O-])c4)c(Oc4cnc5[nH]ccc5c4)c3)CC2)=C(c2ccc(Cl)cc2)C1 [Venetoclax] (first compound max 1 µM, 7x7, partner max 1 µM), the Bliss excess in test [1] was -0.0458; in test [2] it was -0.0501; in test [3] it was -0.0341; in [4], -0.0084; in test [5], -0.0404; in test [6] it was -0.0271. In addition, the Bliss excess in test [7] was -0.0716; in [8], -0.0312; in test [9] it was -0.0808; in [10], -0.0499; in test [11] it was -0.0486; in test [12], -0.0441. Moreover, the Bliss excess in [13] is -0.0419; in test [14], -0.0321; in [15] it was -0.0031; in test [16], -0.0558; in test [17] it was -0.0483; in test [18] it was -0.0739. Moreover, the Bliss excess in [19] is 0.0081; in test [20] it was -0.05.

As for `COc1nnc2ccc(N3CCC(c4ccc(OCCN5CCN(C)C(=O)[C@H]5C)cc4)CC3)nn12` [AZD5153] + CCN(CCO)CCCOc1ccc2c(Nc3cc(CC(=O)Nc4cccc(F)c4)[nH]n3)ncnc2c1 [AZD2811] (first compound max 1 µM, 7x7, partner max 1 µM), the Bliss excess in [1] is -0.0368; in test [2] it was -0.0309; in test [3] it was -0.0667; in [4], -0.0434; in [5] it was -0.0527; in test [6], -0.0564. Further, the Bliss excess in [7] was -0.0853; in test [8] it was 0.0065; in [9], -0.102; in [10] it was 0.0017; in test [11] it was -0.0342; in test [12], -0.0409. Also, the Bliss excess was -0.0009 in test [13]; -0.023 in test [14]; -0.0576 in test [15]; -0.0469 in test [16]; -0.0109 in [17]; 0.0109 in test [18]. Further, the Bliss excess in [19] is -0.109; in [20], 0.0165.
